Measurements from patent publication US4772594A, “Prodrug compounds, process for the preparation thereof and sustained release preparation comprising the same” (Fujisawa Pharmaceutical Co., Ltd., priority 1986, dated 1988).
Read-outs that look alike come from different tables or passages of the source.

Assays:
[1] = test system: Mouse leukemia cell L 1210; test: Anti tumor test 1: survival of mice implanted with L 1210 leukemia; format: in vivo; conditions: for T/C: mean survival time vs control
From the text: The mixture of chloroform and methanol (8:2 V/V) containing egg yolk lecithin (245 μmole), egg yolk sphingomyelin (105 μmole) and Cytarabine prodrug (Example 8) (87.5 and 262.5 μmole respectively) was taken in a roundbottom flask. Liposome suspensions containing Cytarabine prodrug (Concentration: 10 and 20 μmole/ml respectively) were obtained in a similar manner to that of the above-mentioned method. Mouse leukemia cell L 1210 (10^5 cells) were implanted intraperitoneally into BDF female mice (7 weeks).
After 24 hours after inoculation, Cytarabine aqueous solution (dose: 1000 and 3000 μmole/kg respectively), above-mentioned liposome suspension containing Cytarabine prodrug (dose: 100 and 300 μmole/kg respectively)and aqueous solution of N^4 -behenoyl-1-β-arabinofuranosylcytosine (hereinafter referred to as BHAC) which is a known compound as Cytarabine prodrug and is shown by the following structure (dose: 100 and 300 μmole/kg respectively) were administered intravenously to the mouse at a volume of 0.2 ml or 0.3 ml (in case the administration at the dose of 300 μmole/kg of Cytarabine prodrug) per 20 g of mouse body weight. After the treatment, survival of the mice was recorded. [drawing 9]

[2] = test system: Mouse leukemia cell L 1210; test: as above; format: in vivo; conditions: i.v. aqueous solution, 100 μmole/kg
[3] = test system: human lung adenocarcinoma A 549; test: Anti tumor test 2: growth inhibition of A 549 under the subrenal capsule of mice; format: in vivo; conditions: Day 14, i.v. aqueous solution, 1000 μmole/kg at Day 1, 5, 9
From the text: The mixture of chloroform and methanol (3:1 V/V) containing egg yolk lecithin (245 μmole), egg yolk sphingomyelin (105 μmole) and Cyarabine prodrug (Example 8) (87.5 and 157.5 μmole respectively) was taken in a round-bottom flask. Liposome suspensions containing Cytarabine prodrug (Concentration: 10 and 18 μmole/ml respectively) were obtained in a similar manner to that of the above-mentioned method.
A fragment of human lung adenocarcinoma A 549 was implanted under the subrenal capsule of BDF female mouse (8 weeks). Cytarabine aqueous solution (dose: 1000 μmole/kg) and above-mentioned liposome suspension containing Cytarabine prodrug (dose: 100 and 180 μmole/kg respectively)were administered intravenously to the mice at a volume of 0.2 ml per mouse body weight 20 g at Day 1, 5 and 9 after implantation. The tumor volume at Day 14 after implantation was measured and the growth inhibition percent was calculated. (In this test, to clarify the anti tumor effect of each preparation, 17-allyl-1,14-dihydroxy-12-[2-(4-hydroxy-3- methoxycyclohexyl)-1-methylvinyl]-23,25-dimethoxy-13,19,21,27-tetramethyl- 11,28-dioxa-4-azatricyclo[22.3.1.0^4,9 ]octacos-18-ene-2,3,10,16-tetraone as immunosuppressive substance(dose: 32 mg/kg) was administered subcutaneously at Day 1, 2, 5, 7, 9 and 12 after implanation.)

[4] = Bioavailability Test 3: blood concentration after i.v. emulsion or aqueous solution in mice; format: in vivo, ICR female mice; conditions: mouse, iv, 0.8 umol/animal, read-out: Blood concentration of Mitomycin C Prodrug (Example 1)
Experimental: The liposome suspension containing Mitomycin C prodrug (Example 1), which was prepared in the above Bioavailability Test 1, was diluted with PBS at the concentration of Mitomycin C prodrug of 2.5 μmole/ml and was filtered through a polycarbonate membrane (0.1μ). 0.2 ml of PBS solution of Mitomycin C or the liposome suspension containing Mitomycin C prodrug was administered intravenously to ICR female mice (8 weeks, body weight: about 25 g, 3 per one group) respectively, and the blood samples were withdrawn by cardiac puncture under anesthesia. The blood concentrations of Mitomycin C and Mitomycin C prodrug were determined in accordance with the same procedures as described in Bioavailability Test 1.
Each chloroform solution of Mitomycin C prodrug (Example 1) (4 μmole), Panacete 800 (trademark, prepared by Nihon Yushi Co., Ltd.) (40 mg), egg yolk lecithin (14 mg) and HCO-60 (trademark, prepared by Nikko Chemicals Co., Ltd.) (8 mg) was combined in a round-bottom flask and evaporated to dryness. To this was added PBS (1 ml) and emulsified with a sonicator to give an emulsion containing Mitomycin C prodrug. Each chloroform solution of liitomycin C prodrug (Example 1) (4 μmole) and HCO-60 (24 mg) was combined in a roundbottom flask and evaporated to dryness. The residue was dispersed in 1 ml of PBS and agitated vigorously to yield a clear solution. 0.2 ml of each preparations thus obtained which contained the prodrug at 4 μmole/ml, was administered to mice and the blood concentrations of Mitomycin C and Mitomycin C prodrug were determined according to the same procedures as described in Bioavailability Test 2.

[5] = Conversion Test 1: conversion half life of prodrug to parent compound in rat serum; format: in vitro ADME; conditions: rat, serum; for half-life: Half life (t 1/2)
Experimental: Chloroform solution containing egg yolk lecithin (84 μmole), egg yolk sphingomyelin (36 μmole) and Mitomycin C prodrug ( 6 μmole) obtained in the below-mentioned Example 1 or 2 was poured into a round-bottom flask and evaporated to dryness.
To this were added sodium cholate (258 mg) and pH 7.4 phosphate buffered saline (hereinafter referred to as PBS) (4.8 ml) and the mixture was agitated to give a clear purple solution.
Sodium cholate was removed from the solution by the Lipoprep dialyzer (detergent removal apparatus prepared by Diachema Co., Ltd.) to give a liposome suspension containing Mitomycin C prodrug.
Chloroform solution containing egg yolk lecithin (70 μmole), egg yolk sphingomyelin (30 μmole) and FR900482 substance prodrug (Example 6)(5 μmole) was poured into a round-bottom flask and a liposome suspension containing FR900482 substance prodrug was obtained in a similar manner to that of above-mentioned method.
Above-mentioned two liposome suspensions containing Mitomycin C prodrug were each diluted with PBS at 2.5 times.
The liposome suspension containing FR900482 substance prodrug was diluted with PBS to obtain the drug concentration of 0.5 μmole/ml and was filtered through millex-GV (trademark: prepared by Millipore Co., Ltd.) filter (0.22μ).
After the liposome suspension and ethanol solution of each prodrug (0.5 ml) were added to mouse, rat or human serum (4.5 ml, 37° C.), samples were taken periodically and the concentration of each prodrug was determined by high-performance liquid chromotography.
Conversion half lives (t 1/2) of each prodrug to each parent compound in various kinds of serum were calculated by the concentration of each prodrug remaining at each time.

[6] = Toxicity test: body weight change after i.v. administration to mice; format: in vivo, ICR male mice; conditions: mouse
Experimental: Each chloroform solution of egg yolk lecithin (126 μmole), egg yolk sphingomyelin (54 μmole) and Mitomycin C prodrug (Example 1) (3.75, 24 and 37.5 μmole respectively) was combined in a round-bottom flask and evaporated to dryness. Liposome suspensions containing Mitomycin C prodrug were obtained according to the same procedures as described above. The liposome suspensions were diluted with PBS to obtain the desired drug concentration (0.15, 0.96 and 1.50 mg/ml as Mitomycin C) and were filtered through polycarbonate membranes (0.1 μ). PBS solution of Mitomycin C (dose: 1.0 and 6.4 mg/kg/day respectively) or above-mentioned liposome suspension containing Mitomycin C prodrug (dose: 1.0, 6.4 and 10 mg/kg/day as Mitomycin C) were administered intravenously to ICR male mice (6 week) at Day 1, 3 and 5 and the body weight change was recorded from Day 1 to 15.

[7] = Bioavailability Test 2: blood concentration after i.v. administration to mice; format: in vivo, ICR female mice; conditions: iv, mouse, i.v. PBS solution of Mitomycin C
Experimental: The blood concentrations of Mitomycin C and Mitomycin C prodrug were determined in accordance with the same procedures as described in Bioavailability Test 1.

[8] = Bioavailability Test 1: blood concentration after i.v. administration to rats; set-up: species or system SD male rats; conditions: rat, in vivo, iv
Experimental: Chloroform solution (14.3 ml) containing egg yolk lecithin (126 μmole), egg yolk sphingomyelin (54 μmole) and Mitomycin C prodrug (Example 1) (24 μmole) was poured into a round-bottom flask and evaporated at one hour. To this were added sodium cholate (194 mg) and PBS (6 ml) and agitated. A liposome suspension containing Mitomycin C prodrug was obtained according to a similar manner to that of above-mentioned method. The liposome suspension thus prepared was diluted with PBS to obtain the drug concentration of 3.0 μmole/ml and was filtered through a polycarbonate membrane (0.1 μ). 1.0 ml of PBS solution of Mitomycin C or the liposome suspension containing Mitomycin C prodrug prepared by the above-mentioned method was administered intravenously to SD male rats (7 weeks, body weight: about 300 g, 4 per one group) and blood samples were withdrawn at appropriate intervals from subclavian vein. The plasma samples were deproteinzed and the concentration of Mitomycin C was determined by high-performance liquid chromatography.
While Mitomycin C prodrug in the blood was determined by high-performance liquid chromatography after extraction with ethanol from the freeze-dried blood samples.

[9] = i.v. BHAC aqueous solution, 100 μmole/kg
[10] = i.v. BHAC aqueous solution, 300 μmole/kg
[11] = i.v. aqueous solution, 1000 μmole/kg
[12] = i.v. aqueous solution (4 μmole/ml, 0.2 ml)
[13] = i.v. emulsion (4 μmole/ml, 0.2 ml)

SMILES: CCCCCCCCCCCCCCCCCCCCCC(=O)Nc1ccn([C@@H]2O[C@H](CO)[C@@H](O)[C@@H]2O)c(=O)n1 [BHAC, N^4-behenoyl-1-β-arabinofuranosylcytosine]
- Mean survival time [1, 9]: 11.0 ± 0.3 days
- Mean survival time [1, 10]: 15.3 ± 0.5 days
- T/C [1, 9]: 122%
- T/C [1, 10]: 170%

SMILES: Nc1ccn([C@@H]2O[C@H](CO)[C@@H](O)[C@@H]2O)c(=O)n1 [Cytarabine, 1-β-D-arabinofuranosylcytosine]
- Mean survival time [1, 11]: 10.8 ± 0.3 days
- T/C [1, 11]: 120%
- Mean survival time [2]: 9.5 ± 0.2 days
- T/C ([2]; mean survival time vs control): 106%
- Tumor volume mean value ± standard error [3]: 17.7 ± 3.2 mm^3
- Inhibition ([3]; tumor growth): 41.7%

SMILES: CO[C@@]12[C@H](COC(N)=O)C3=C(C(=O)C(C)=C(N)C3=O)N1C[C@H]1[C@@H]2N1C(=O)CNC(=O)O[C@H]1CC[C@@]2(C)C(=CC[C@H]3[C@@H]4CC[C@H]([C@H](C)CCCC(C)C)[C@@]4(C)CC[C@@H]32)C1 [Example 1, [1aS-(1aα, 8β, 8aα, 8bα)]-6-amino-8-carbamoyloxymethyl-N'-[N-(cholest-5-en-3β-oxycarbonyl)glycyl]-1,1a,2,8,8a,8b-hexahydro-8a-methoxy-5-methy-aziridino[2',3':3,4]pyrrolo [1,2-a]indole-4,7-dione]
- concentration at 1 h [4, 12]: 186 µM
- concentration at 4 h [4, 12]: 73.9 µM
- concentration at 7 h [4, 12]: 22.2 µM
- concentration at 1 h [4, 13]: 251 µM
- concentration at 4 h [4, 13]: 81.6 µM
- concentration at 7 h [4, 13]: 39 µM
- Half life (t 1/2) [5]: 10.0 h
- half-life [5]: 5.7 h
- Body weight ([6]; i.v. liposome suspension, 1.0 mg/kg/day as Mitomycin C at Day 1, 3, 5, 1 day): 32.78 g
- Body weight ([6]; i.v. liposome suspension, 6.4 mg/kg/day as Mitomycin C at Day 1, 3, 5, 1 day): 33.86 g
- Body weight ([6]; i.v. liposome suspension, 10.0 mg/kg/day as Mitomycin C at Day 1, 3, 5, 1 day): 35.14 g

SMILES: CO[C@@]12[C@H](COC(N)=O)C3=C(C(=O)C(C)=C(N)C3=O)N1C[C@H]1[C@@H]2N1C(=O)CO[C@H]1CC[C@@]2(C)C(=CC[C@H]3[C@@H]4CC[C@H]([C@H](C)CCCC(C)C)[C@@]4(C)CC[C@@H]32)C1 [Example 2, [1aS-(1aα, 8β, 8aα,8bα)]-6-amino-8-carbamoyloxymethyl-N-(cholest-5-en-3β-oxyacetyl) 1,1a,2,8,8 a,8b-hexahydro-8a-methoxy-5-methyl-aziridino [2',3':3,4]pyrrolo[1,2-a]indole-4,7-dione]
- Half life (t 1/2) [5]: 17.3 h
- half-life [5]: 9.3 h

SMILES: CO[C@@]12[C@H](COC(N)=O)C3=C(C(=O)C(C)=C(N)C3=O)N1C[C@@H]1N[C@@H]12 [Mitomycin C]
- concentration at 5 min ([7]; 5 min): 9.15 µM
- concentration at 0.25 h ([7]; 15 min): 2.76 µM
- concentration at 0.5 h ([7]; 30 min): 1.57 µM
- concentration at 1 h ([7]; 1 hr): 0.11 µM
- Body weight ([6]; i.v. PBS solution, 1.0 mg/kg/day at Day 1, 3, 5, 1 day): 33.78 g
- Body weight ([6]; i.v. PBS solution, 1.0 mg/kg/day at Day 1, 3, 5, 5 days): 33.86 g
- Body weight ([6]; i.v. PBS solution, 1.0 mg/kg/day at Day 1, 3, 5, 15 days): 35.26 g
- Body weight ([6]; i.v. PBS solution, 6.4 mg/kg/day at Day 1, 3, 5, 1 day): 35.54 g
- Body weight ([6]; i.v. PBS solution, 6.4 mg/kg/day at Day 1, 3, 5, 5 days): 29.36 g
- Death (in body weight column, 15 days) ([6]; i.v. PBS solution, 6.4 mg/kg/day at Day 1, 3, 5, at 8 days): All died
- concentration at 5 min [8]: 10.7 µM
- concentration at 0.25 h [8]: 5.54 µM
- concentration at 0.5 h [8]: 3.32 µM
- concentration at 1 h [8]: 1.04 µM
- concentration at 2 h [8]: 0.11 µM
